# Results as given in patent publication US12187992B2, “Method and device for early cancer screening” (The Regents of the University of California, priority 2020, dated 2025).
# “Also recorded” adds a separate entry of the source.
# Assays:
# Format in all cases: cell-based, human
# [1] = test system: weakly adherent MDA-MB-231 cells; assay: 2D migration assay on step-gradient hydrogels under drug treatment (durotaxis); conditions: WA mammary cells
# Text: (§1) A two-step photopolymerization method was used as described previously (Happe et al., 2017) to produce hydrogels with alternating elasticity profiles. Acrylamide concentrations of the prepolymer solutions were modified to obtain elasticities matching that of the tumor and stromal environment of each type of cancer. For breast cancer hydrogels, 3% acrylamide (3.7% for lung, 6.4% for prostate) and 0.4% bis-acrylamide were used for the first prepolymer solution, which was polymerized between a methacrylated 18 mm coverslip and a chlorosilanated glass slide by exposing to ultraviolet light (350 nm) for 5 minutes, using 2-hydroxy-4′-(2-hydroxyethoxy)-2-methylpropiophenone (0.5%) as the photo-initiator. The PA hydrogel was removed from the chlorosilanated glass slide and dehydrated for 1 hour on a hot plate at 30° C. prior to rehydrating with a 2% acrylamide (3.7% for lung, 3.2% for prostate) and 0.4% bis-acrylamide prepolymer solution. The rehydrated gel was again exposed to UV light for 5 min through a high-resolution chrome patterned photomask 200 μm dark stripes and 100 μm clear stripes. The Young's moduli of each region were validated using atomic force microscopy.
# (§2) The hydrogels were then placed in a 12-well plate on top of 50 μl of 2 mg/ml of collagen I to adhere the coverslip to the bottom of the well. After the collagen polymerized, the gels were immersed in a solution of sulfosuccinimidyl 6-(4′-azido-2′-nitrophenylamino)hexanoate (0.2 mg/ml, Sulfo-SANPAH; Pierce) dissolved in 4-(2-hydroxyethyl)-1-piperazineethanesulfonic acid buffer (pH 8.4, 50 mM) and exposed to UV light (350 nm) for 10 minutes. After washing several times with PBS, the functionalized surface of the gels was coated with collagen I (150 μg/ml) by incubating overnight at 37° C.
# (§3) Weakly and strongly adherent cells were isolated at varying shear stresses using a parallel plate flow chamber (Beri et al., 2020). To ensure sufficient spacing between individual cells, MDA-MB-231 and NCI-H1299 cells were seeded at […] onto a fibronectin (2 μg/cm^2) coated glass plate and incubated overnight. […] For each cell line, PBS free of magnesium and calcium and with 4.5 g/L of dextrose was used to shear cells. Shear stresses used to detach the weakly adherent (WA) population were selected to collect about 20,000 cells at a given flow rate (3 min at 30 dynes/cm^2 for MDA-MB-231, 3 min at 60 dynes/cm^2 for PC-3 and NCI-H1299 cells). The strongly adherent (SA) population was collected after washing away the intermediate population at a higher shear stress (2 min 500 at dynes/cm^2 for MDA-MB-231, 5 min at 300 dynes/cm^2 for NCI-H1299, and 2 min at 750 dynes/cm^2 for PC-3), and detaching the remaining SA population using 0.25% trypsin-EDTA. Media was then pumped though the device to neutralize the trypsin and collect the SA cells. Collected cells were then seeded onto hydrogels and allowed to adhere for […] 2 hours prior to imaging.
# (§4) Isolated cells were seeded at ˜1500 cells/well onto step-gradient gels fixed in a 12-well plate and allowed to adhere for no more than 2 hours to ensure a random distribution across the step-gradient at the start of imaging. The cells were imaged over 24 hours using a Nikon Eclipse Ti-S microscope equipped with a temperature and CO2 controller (Pathology Devices Inc., LiveCell). […] Cell trajectories were collected and analyzed using a custom MATLAB script (https://github.com/compactmatterlab/Durotaxis, MathWorks, Natick, MA). […]
# [2] = test system: strongly adherent MDA-MB231 cells; assay: 2D migration assay on collagen gels under microtubule-targeting drug treatment; conditions: nocodazole 0.2 ug/mL, paclitaxel 0.5 ug/mL, tracked 24 hours on collagen gels
# Description: (§5) To isolate the weakest and strongest 2% of the MDA-MB231 cell population for migration assays, the seeded plate was subjected to a low shear stress (28 dynes/cm^2) for 3 minutes to isolate WA cells in the flow through from the outlet. The shear stress was then increased to a high shear stress (510 dynes/cm^2) for 2 minutes to eliminate intermediate cell fractions. The remaining steps to isolate SA cells are listed above. The weakest MCF10A and […] cells were isolated using 170 and 130 dynes/cm^2 of shear stress respectively; the strongest were isolated using 1275 and 595 dynes/cm^2 respectively. 2D migration assays on collagen gels: 2.4 mg/mL Type I collagen gels were prepared by mixing collagen (Corning) with PBS, DI water, and 1 M NaOH and adjusted to pH 7.0. Gels were added to a 12-well plate and cured at 37° C. for 30 minutes. The weakest and strongest 2% of the cell population were seeded onto the gels and incubated overnight. The cells were imaged with a Nikon Eclipse Ti-S microscope equipped with a temperature- and CO2-controlled stage. Cells were imaged at 10× in brightfield every 15 minutes for 24 hours. The migration data was analyzed via Fiji. The positions were normalized to the starting point and analyzed via a custom MATLAB script to compute instantaneous speed and cell displacement. […] Cells that interacted with other cells for more than 2 hours were not tracked, as cell-cell interactions artificially slowed cell speed. For MDA-MB231 cell migration under drug treatment, cells were treated with either 0.2 μg/mL nocodazole (Cayman Chemical) or 0.5 μg/mL paclitaxel (LC Laboratories). Cells were imaged the following day for 24 hours and tracked as stated above.
# [3] = test system: weakly adherent MDA-MB231 cells; assay: as above; conditions: nocodazole 0.2 ug/mL, paclitaxel 0.5 ug/mL, tracked 24 hours on collagen gels
# Description: as §5
# [4] = test system: strongly adherent MDA-MB-231 cells; assay: 2D migration assay on step-gradient hydrogels under drug treatment (durotaxis); conditions: SA mammary cells; LPA 1, 10 μM or DMSO; t=3 and t=24 hours
# Text: as §1, §2, §3, §4
compound,measurement,setting,value
"Cc1ccc2c(c1)C(=O)[C@]1(O)CCN(c3ccc([N+](=O)[O-])cc3)C1=N2 [blebbistatin, (S)-4′-nitro-Blebbistatin]",cell speed on soft and stiff substrates,"[1]; blebbistatin 100 μM vs DMSO, step-gradient hydrogels",decreased
same,"durotactic behavior (cell fraction vs hydrogel position), dose dependent response","[1]; blebbistatin 1, 10, 100 μM or DMSO, t=3 and t=27 hours",became more durotactic
same,antidurotactic migration,[1]; blebbistatin-treated vs DMSO,much less likely
same,likelihood to migrate from the soft substrate into the stiff substrate (durotactic migration),[1]; blebbistatin-treated vs DMSO,2 fold
COC(=O)Nc1nc2ccc(C(=O)c3cccs3)cc2[nH]1 [nocodazole],average migration speed,[2],unaffected; also recorded: no change
same,average migration speed,[3],migration speed reduced to that of the strongly adherent cells; also recorded: significant decrease in migration speed; also recorded: significant decrease in average speed
CC(=O)O[C@H]1C(=O)[C@@]2(C)[C@H]([C@H](OC(=O)c3ccccc3)[C@]3(O)C[C@H](OC(=O)[C@H](O)[C@@H](NC(=O)c4ccccc4)c4ccccc4)C(C)=C1C3(C)C)[C@]1(OC(C)=O)CO[C@@H]1C[C@@H]2O [paclitaxel],average migration speed,[2],unaffected; also recorded: no change
same,average migration speed,[3],migration speed reduced to that of the strongly adherent cells; also recorded: significant decrease in migration speed; also recorded: significant decrease in average speed
lysophosphatidic acid [lysophophatidic acid],"durotactic behavior (cell fraction vs hydrogel position), dose dependent response",[4],became less durotactic
